Assay results as given in patent publication US20060018851A1, “Methods and compositions for preventing and treating hyperpigmentation of skin” (ProCyte Corporation, priority 2004, published 2006).

Test system: B16 melanocytes
Experiment: Melanin (pigment) produced by B16 melanocytes in culture; culture media analyzed for pigment content after 5 days, pictures of culture plates
Format: cell-based
Conditions: for Percent Inhibition of Pigmentation in Melanocytes: 5 days
Protocol: The effect of peptide manganese complexes on pigmentation was determined by determining the amount of melanin produced by B16 melanocytes in culture. Various amounts of a representative peptide manganese complex (glycyl-L-histidyl-L-lysine:manganese) were added to the culture medium. After 5 days, the culture media was collected and analyzed for pigment content. In addition, pictures were taken of the culture plates.

Row | Compound | inhibition of pigment formation compared with GHK-Mn (200 ug/mi kojic acid vs 25 ug/ml GHK-Mn) | Percent Inhibition of Pigmentation in Melanocytes (0.1 ug/mL, Plate I) [%] | Percent Inhibition of Pigmentation in Melanocytes (0.1 ug/mL, Plate II) [%] | Percent Inhibition of Pigmentation in Melanocytes (1.0 ug/ml, Plate I) [%] | Percent Inhibition of Pigmentation in Melanocytes (1.0 ug/ml, Plate II) [%] | Percent Inhibition of Pigmentation in Melanocytes (10 ug/ml, Plate I) [%] | Percent Inhibition of Pigmentation in Melanocytes (10 ug/ml, Plate II) [%] | inhibition of pigment formation compared with kojic acid (25 ug/ml GHK-Mn vs 200 ug/mi kojic acid) | formation of pigment inhibited relative to the control (highest concentration tested) | formation of melanin pigments in cultured melanocytes (Table 4, FIG. 1) (various concentrations) | visual examination of culture flasks: secreted melanin (FIG. 2) (vs PBS control flask) | melanin in the cells, high magnification photograph (FIG. 3B) (vs control melanocyte culture (FIG. 3A))
1 | O=c1cc(CO)occ1O [kojic acid, 5-hydoxy-4-pyran-4-one-2-methyl, reference compound] | approximately equivalent | – | – | – | – | – | – | – | – | – | – | –
2 | glycyl-L-histidyl-L-lysine:manganese(II) [GHK-Mn] | – | 42 | 28 | 68 | 35 | 88 | 81 | approximately equivalent to that of 200 ug/mi of kojic acid | more than 80% | inhibited the formation of melanin pigments in cultured melanocytes in a dose responsive manner | contains relatively little melanin | containing much less melanin in the cells
